Values of other authors as cited in patent US20030157171A1 (priority 2003, published 2003).

## COc1ccc2c(c1)c(CC(=O)O)c(C)n2C(=O)c1ccc(Cl)cc1 [Indomethacin]
  water solubility (in words): poorly water soluble

## C[C@H](CCC(=O)O)[C@H]1CC[C@H]2[C@@H]3[C@@H](O)C[C@@H]4C[C@H](O)CC[C@]4(C)[C@H]3CC[C@]12C [Ursodeoxycholic Acid]
pH below 7.0
  water solubility at pH values below 7.0: low
